# Test results: US11352350B2, “IRAK degraders and uses thereof” (Kymera Therapeutics, Inc., priority 2018, dated 2022)
# pIC50: −log10 of the molar value. Where two headings read alike, the source gives them in different places.
# Columns and labels:
# IRAK4 = IRAK4 (Homo sapiens (Human), UniProt Q9NWZ3); assay: IRAK4 MSD degradation in OCI-LY10; format: cell-based; conditions: MSD
# Summary of the method: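 OCI-LY10 cells treated with 8-point 1:3 dilutions (top 1 to 10 μM final) for 4 to 24 h at 37° C. Lysate IRAK4 measured by MSD sandwich immunoassay (2H9 capture, Y279 detection, SULFO-TAG anti-rabbit). DC50 from three-parameter logistic fit.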
# OCI-LY10 = assay: CTG Cell Viability Assay - OCI-LY10; format: cell-based, human; conditions: OCI-LY10, 4 days, read-out: CTG Cell Viability Assay - OCI-LY10: Average external-IC50
# Summary of the method: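 OCI-LY10 cells exposed to 9-dose, 1:3 dilutions from 10 μM top (0.2% DMSO) for 4 days at 37° C, 5% CO2. Viability by CellTiter-Glo luminescence; IC50 from three-parameter logistic fit.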
# [1] = OCI-LY10, 4 hrs, read-out: IRAK4 MSD degradation in OCI-LY10 at 4 hrs: Average external-Abs DC50
# [2] = OCI-LY10, 24 hrs, read-out: IRAK4 MSD degradation in OCI-LY10 at 24 hrs: Average external-Abs DC50
# Sequence of IRAK4 (Q9NWZ3 whole entry): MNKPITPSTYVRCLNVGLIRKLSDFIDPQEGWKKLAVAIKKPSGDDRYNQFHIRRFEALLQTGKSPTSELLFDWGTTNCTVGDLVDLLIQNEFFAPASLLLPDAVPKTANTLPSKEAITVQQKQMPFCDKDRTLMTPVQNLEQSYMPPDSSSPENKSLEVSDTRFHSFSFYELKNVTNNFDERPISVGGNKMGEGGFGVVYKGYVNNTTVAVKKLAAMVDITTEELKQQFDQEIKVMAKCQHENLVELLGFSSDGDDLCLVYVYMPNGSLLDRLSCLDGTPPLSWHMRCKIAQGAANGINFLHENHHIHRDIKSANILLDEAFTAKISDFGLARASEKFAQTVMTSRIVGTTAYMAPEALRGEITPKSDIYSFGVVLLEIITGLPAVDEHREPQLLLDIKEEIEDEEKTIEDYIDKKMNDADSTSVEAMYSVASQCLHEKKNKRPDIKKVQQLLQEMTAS
Structure (SMILES),DC50 (IRAK4; [1]),"pIC50 (OCI-LY10; Homo sapiens, OCI-Ly10, 96 h)",DC50 (IRAK4; [2]),pIC50 (OCI-LY10)
CN(CCN1CCN(c2cccc3c2C(=O)N(C2CCC(=O)NC2=O)C3=O)CC1)C[C@H]1CC[C@H](n2cc(NC(=O)C3CNN4C=CC(N5CCOCC5)=NC34)c(C(F)F)n2)CC1 (stereo partly drawn) [I-224],100 to 1000 nM,< 6.00,,
CN(CCCN1CCN(c2cccc3c2C(=O)N(C2CCC(=O)NC2=O)C3=O)CC1)C[C@H]1CC[C@H](n2cc(NC(=O)c3cnn4ccc(N5CCOCC5)nc34)c(C(F)F)n2)CC1 (stereo partly drawn) [I-225],10 to 100 nM,< 6.00,,
O=C1CCC(N2C(=O)c3cccc(NCCCOCCCN4CCC(n5cc(NC(=O)c6cnn7ccc(N8CCOCC8)nc67)c(C(F)F)n5)CC4)c3C2=O)C(=O)N1 (stereo not drawn) [I-226],100 to 1000 nM,> 7.30,10 to 100 nM,
O=C1CCC(N2C(=O)c3cccc(N4CCC(CCN5CCC(n6cc(NC(=O)c7cnn8ccc(N9CCOCC9)nc78)c(C(F)F)n6)CC5)CC4)c3C2=O)C(=O)N1 (stereo not drawn) [I-227],100 to 1000 nM,> 7.30,,
O=C1CCC(N2C(=O)c3cccc(N4CCC(CCCN5CCC(n6cc(NC(=O)c7cnn8ccc(N9CCOCC9)nc78)c(C(F)F)n6)CC5)CC4)c3C2=O)C(=O)N1 (stereo not drawn) [I-228],> 1000 nM,< 6.00,,
CC[C@@H]1[C@H](F)C(=O)N[C@@H]1COc1ncc(C#C[C@H]2CC[C@@H](CN(C)CCCOCCCc3ccc4c(c3)n(C)c(=O)n4C3CCC(=O)NC3=O)CC2)c2cc(C(N)=O)c(OC)cc12 (stereo partly drawn) [I-230],100 to 1000 nM,< 6.00,100 to 1000 nM,
CN(CCCNc1cccc2c1C(=O)N(C1CCC(=O)NC1=O)C2=O)C1CCN(C[C@H]2CC[C@H](n3cc(NC(=O)c4cnn5ccc(N6CCOCC6)nc45)c(C(F)F)n3)CC2)CC1 (stereo partly drawn) [I-231],10 to 100 nM,> 7.30,,
O=C1CCC(N2C(=O)c3cccc(NC4CCN(C5CCN(C[C@H]6CC[C@H](n7cc(NC(=O)c8cnn9ccc(N%10CCOCC%10)nc89)c(C(F)F)n7)CC6)CC5)CC4)c3C2=O)C(=O)N1 (stereo partly drawn) [I-232],< 10 nM,> 7.30,,
Cn1c(=O)n(C2CCC(=O)NC2=O)c2cccc(CN3CC4(CCN(C[C@H]5CC[C@H](n6cc(NC(=O)c7cnn8ccc(N9CCOCC9)nc78)c(C(F)F)n6)CC5)CC4)C3)c21 (stereo partly drawn) [I-233],< 10 nM,6.30 to 7.00,,
CC[C@@H]1[C@H](F)C(=O)N[C@@H]1COc1ncc(C#CC2CCN(CCCC3CCN(c4cccc5c4C(=O)N(C4CCC(=O)NC4=O)C5=O)CC3)CC2)c2cc(C(N)=O)c(OC)cc12 (stereo partly drawn) [I-234],100 to 1000 nM,< 6.00,10 to 100 nM,
NCCCOCCCNC[C@H]1CC[C@H](n2cc(NC(=O)c3coc(-c4ccnc(NCC5CC5)c4)n3)c(C(F)F)n2)CC1 [I-235],> 1000 nM,< 6.00,> 1000 nM,
CN(CC1CCN(c2ccc3c(c2)n(C)c(=O)n3C2CCC(=O)NC2=O)CC1)C[C@H]1CC[C@H](n2cc(NC(=O)c3coc(-c4ccnc(NCC5CC5)c4)n3)c(C(F)F)n2)CC1 (stereo partly drawn) [I-236],< 10 nM,< 6.00,,
CN(CCOCCNCc1cccc2c1n(C)c(=O)n2C1CCC(=O)NC1=O)C[C@H]1CC[C@H](n2cc(NC(=O)c3coc(-c4ccnc(NCC5CC5)c4)n3)c(C(F)F)n2)CC1 (stereo partly drawn) [I-237],< 10 nM,< 6.00,,
CN1C(=O)C(C2CCC(=O)NC2=O)c2ccc(CN3CCC(N(C)C[C@H]4CC[C@H](n5cc(NC(=O)c6coc(-c7ccnc(NCC8CC8)c7)n6)c(C(F)F)n5)CC4)CC3)cc21 (stereo partly drawn) [I-239],10 to 100 nM,,,< 6.00
CN(C[C@H]1CC[C@H](n2cc(NC(=O)c3coc(-c4ccnc(NCC5CC5)c4)n3)c(C(F)F)n2)CC1)C1CN(Cc2cccc3c2n(C)c(=O)n3C2CCC(=O)NC2=O)C1 (stereo partly drawn) [I-240],< 10 nM,< 6.00,,
CN(C[C@H]1CC[C@H](n2cc(NC(=O)c3coc(-c4ccnc(NCC5CC5)c4)n3)c(C(F)F)n2)CC1)C1CCN(Cc2ccnc3c2c2ccccc2n3C2CCC(=O)NC2=O)CC1 (stereo partly drawn) [I-241],10 to 100 nM,6.00 to 6.30,,
CN(CCCN(C)C[C@H]1CC[C@H](n2cc(NC(=O)c3coc(-c4ccnc(NCC5CC5)c4)n3)c(C(F)F)n2)CC1)Cc1cccc2c1n(C)c(=O)n2C1CCC(=O)NC1=O (stereo partly drawn) [I-242],< 10 nM,6.00 to 6.30,,
Cn1c(=O)n(C2CCC(=O)NC2=O)c2ccc(CN3CCN(C[C@H]4CC[C@H](n5cc(NC(=O)c6coc(-c7ccnc(NCC8CC8)c7)n6)c(C(F)F)n5)CC4)CC3)cc21 (stereo partly drawn) [I-243],< 10 nM,< 6.00,,
Cn1c(=O)n(C2CCC(=O)NC2=O)c2cccc(CN3CCC4(CC3)CN(C[C@H]3CC[C@H](n5cc(NC(=O)c6coc(-c7ccnc(NCC8CC8)c7)n6)c(C(F)F)n5)CC3)C4)c21 (stereo partly drawn) [I-244],< 10 nM,6.30 to 7.00,,

Structure (SMILES),DC50 (IRAK4; [1]),"pIC50 (OCI-LY10; Homo sapiens, OCI-Ly10, 96 h)",DC50 (IRAK4; [2]),pIC50 (OCI-LY10)
Cn1c(=O)n(C2CCC(=O)NC2=O)c2cccc(CN3CCC4(CC3)CCN(C[C@H]3CC[C@H](n5cc(NC(=O)c6coc(-c7ccnc(NCC8CC8)c7)n6)c(C(F)F)n5)CC3)CC4)c21 (stereo partly drawn) [I-245],10 to 100 nM,> 7.30,,
CN(CCCOCCCc1cccc2c1n(C)c(=O)n2C1CCC(=O)N(C)C1=O)C[C@H]1CC[C@H](n2cc(NC(=O)c3coc(-c4ccnc(NCC5CC5)c4)n3)c(C(F)F)n2)CC1 (stereo partly drawn) [I-246],100 to 1000 nM,< 6.00,,
CN1C(=O)CCC(n2c(=O)n(C)c3c(CN4CCC(N(C)C[C@H]5CC[C@H](n6cc(NC(=O)c7coc(-c8ccnc(NCC9CC9)c8)n7)c(C(F)F)n6)CC5)CC4)cccc32)C1=O (stereo partly drawn) [I-247],100 to 1000 nM,< 6.00,,
Cn1c(=O)n(C2CCC(=O)NC2=O)c2cccc(CN3CCC(O[C@H]4C[C@H](N(C)C[C@H]5CC[C@H](n6cc(NC(=O)c7coc(-c8ccnc(NCC9CC9)c8)n7)c(C(F)F)n6)CC5)C4)CC3)c21 (stereo partly drawn) [I-249],10 to 100 nM,> 7.30,,
Cn1c(=O)n(C2CCC(=O)NC2=O)c2ccc(CN3CCN(CCO[C@H]4C[C@H](N(C)C[C@H]5CC[C@H](n6cc(NC(=O)c7coc(-c8ccnc(NCC9CC9)c8)n7)c(C(F)F)n6)CC5)C4)CC3)cc21 (stereo partly drawn) [I-252],< 10 nM,6.30 to 7.00,,
Cn1c(=O)n(C2CCC(=O)NC2=O)c2ccc(CN3CCC(CCCN4CCC(n5cc(NC(=O)c6coc(-c7ccnc(NCC8CC8)c7)n6)c(C(F)F)n5)CC4)CC3)cc21 (stereo not drawn) [I-254],10 to 100 nM,6.30 to 7.00,,
CN(CCCOCCCc1cccc2c1n(C)c(=O)n2C1CCC(=O)NC1=O)C[C@H]1CC[C@H](n2cc(NC(=O)c3cnn4ccc(N5CCOCC5)nc34)c(C(F)F)n2)CC1 (stereo partly drawn) [I-259],< 10 nM,< 6.00,< 10 nM,
Cn1c(=O)n(C2CCC(=O)NC2=O)c2cccc(CN3CCC(CCN4CC(n5cc(NC(=O)c6coc(-c7ccnc(NCC8CC8)c7)n6)c(C(F)F)n5)C4)CC3)c21 (stereo not drawn) [I-263],10 to 100 nM,> 7.30,,
Cn1c(=O)n(C2CCC(=O)NC2=O)c2cccc(CN3CCC(CN4CCC(n5cc(NC(=O)c6coc(-c7ccnc(NCC8CC8)c7)n6)c(C(F)F)n5)CC4)CC3)c21 (stereo not drawn) [I-265],10 to 100 nM,> 7.30,,
Cn1c(=O)n(C2CCC(=O)NC2=O)c2cccc(CCCOC3CCN(C[C@H]4CC[C@H](n5cc(NC(=O)c6cnn7ccc(NCC8CC8)nc67)c(C(C)(C)O)n5)CC4)CC3)c21 (stereo partly drawn) [I-267],100 to 1000 nM,,,< 6.00
CN(C[C@H]1CC[C@H](n2cc(NC(=O)c3cnn4ccc(NCC5CC5)nc34)c(C(C)(C)O)n2)CC1)C1CCN(Cc2cccc3c2n(C)c(=O)n3C2CCC(=O)NC2=O)CC1 (stereo partly drawn) [I-268],100 to 1000 nM,< 6.00,,
Cn1c(=O)n(C2CCC(=O)NC2=O)c2cccc(CCCOCCCN3CCN([C@H]4CC[C@H](Nc5ncnc6ccc(CC#N)cc56)CC4)CC3)c21 (stereo partly drawn) [I-269],> 1000 nM,< 6.00,> 1000 nM,
Cn1c(=O)n(C2CCC(=O)NC2=O)c2cccc(CN3CCC(N(C)[C@H]4CC[C@H](Oc5ncnc6ccc(C#N)cc56)CC4)CC3)c21 (stereo partly drawn) [I-270],> 1000 nM,< 6.00,> 1000 nM,
Cn1c(=O)n(C2CCC(=O)NC2=O)c2cccc(CCCOCCCOC3CCN(C4CCC(Nc5ncnc6ccc(C#N)cc56)CC4)CC3)c21 (stereo not drawn) [I-271],> 1000 nM,< 6.00,> 1000 nM,
Cc1ccc(-n2nc(C3CCN(CCCCCOCCCc4cccc5c4n(C)c(=O)n5C4CCC(=O)NC4=O)CC3)cc2NC(=O)c2cnn3cccnc23)nc1 (stereo not drawn) [I-272],> 1000 nM,< 6.00,> 1000 nM,
Cc1ccc(-n2nc(C3CCN(CCCCCOCCCc4ccc5c(c4)n(C)c(=O)n5C4CCC(=O)NC4=O)CC3)cc2NC(=O)c2cnn3cccnc23)nc1 (stereo not drawn) [I-273],> 1000 nM,< 6.00,> 1000 nM,
CN[C@@H](C)C(=O)N[C@H](C(=O)N1CCC[C@H]1c1nc(C(=O)c2cccc(OCCOCCOCCOCCOCCNC[C@H]3CC[C@H](n4cc(NC(=O)c5coc(-c6ccnc(NCC7CC7)c6)n5)c(C(F)F)n4)CC3)c2)cs1)C1CCCCC1 [I-274],100 to 1000 nM,6.00 to 6.30,100 to 1000 nM,
"C[C@@H]1CN(c2ccn3ncc(C(=O)Nc4cn([C@H]5CC[C@H](CN6CCC(OCCCc7cccc8c7n(C)c(=O)n8C7CCC(=O)NC7=O)CC6)CC5)nc4C(F)F)c3n2)C[C@H](C)O1 (stereo partly drawn) [I-275, N-[3-(difluoromethyl)-1-[4-[[4-[3-[1-(2,6-dioxo-3-piperidyl)-3-methyl-2-oxo-benzimidazol-4-yl]propoxy]-1-piperidyl]methyl]cyclohexyl]pyrazol-4-yl]-5-[(2R,6S)-2,6-dimethylmorpholin-4-yl] pyrazolo[1,5-a] pyrimidine-3-carboxamide]",10 to 100 nM,< 6.00,,
C[C@@H]1CN(c2ccn3ncc(C(=O)Nc4cn([C@H]5CC[C@H](CN6CCC(OCCCc7cccc8c7n(C)c(=O)n8C7CCC(=O)NC7=O)CC6)CC5)nc4C(F)F)c3n2)C[C@@H](C)O1 (stereo partly drawn) [I-276],< 10 nM,< 6.00,,
